The test system of one series is rabbit saphenous vein. The experiment in a line: Rabbit saphenous vein contraction. The protocol: Representative compounds of the present invention were tested in a rabbit saphenous vein contraction assay to measure their ability to mediate vasoconstriction. […] The tips of two 30-gauge stainless steel hypodermic needles bent into an L-shape were slipped into the polyethylene tubing. Vessels were gently pushed from the cannula onto the needles. The needles were then separated so that the lower one was attached with thread to a stationary glass rod and the upper one was tied with thread to the transducer. […] An initial optimum resting force of 1 gm was applied to the saphenous vein. Isometric contractions were recorded as changes in grams of force on a Beckman Dynograph with Statham UC-3 transducers and microscale accessory attachments. Tissues were allowed to equilibrate 1 to 2 hours before exposure to drugs. Cumulative agonist concentration-response curves were generated in tissues and no tissue was used to generate more than two agonist concentration-response curves. […] This vasoconstriction assay measures two important parameters, saphenous vein contraction (EC50) and maximal contraction as a % maximal KCl response (% man KCl).

pEC50: −log10 of the molar value. Where a name gives a salt, the structure may show the parent alone.

In general, melting point refers to the temperature of the solid-liquid transition. Broadly, the pEC50 is −log10 of the EC50, conventionally taken in molar units. The low end stands for a large EC50, the high end for a small EC50.

In the case of `CN1CCC(Oc2cccc(NC(=O)c3ccncc3)n2)CC1.Cl` (hydrate or solvate), the melting point is 254 to 256 °C.
On the same count and under the same terms, next, `CN1CCC(Oc2cc(NC(=O)c3c(F)cc(F)cc3F)ccc2Cl)CC1.Cl`: above 270 °C; `CN1CCC(Oc2cccc(NC(=O)c3ccccc3Br)n2)CC1.Cl`: 104.3 °C.
`CN1CCC(Oc2cc(NC(=O)c3ccc(F)cc3F)ccc2Cl)CC1.Cl`: the melting point is 257 °C (dec.).
In the case of `CN1CCC(Oc2cc(NC(=O)c3ccccc3Br)ccc2Cl)CC1.Cl`, the melting point fell in the range of 146 to 148 °C.
`CN1CCC(Oc2cccc(NC(=O)c3ccccc3C(F)(F)F)c2)CC1.Cl` registered a melting point of 135 to 136 °C.
For the compound `CN1CCC(Oc2cccc(NC(=O)c3cc(F)c(F)c(F)c3)n2)CC1.Cl`, the melting point was 171.4 °C (dec.).
In turn, `CN1CCC(Oc2cccc(NC(=O)c3ccncc3)c2)CC1.Cl` displayed a melting point of 172 to 175 °C.
Same read-out and setting: next, `CN1CCC(Oc2cccc(NC(=O)c3ccccc3Cl)n2)CC1.Cl` (hydrate or solvate): 88 to 90 °C; `C[C@H]1C[C@H](Oc2cc(NC(=O)c3ccc(F)cc3Cl)ccc2C(C)(C)C)CCN1C.Cl` (single isomer, unassigned): 260 °C.
For the compound `C[C@@H]1CN(C)CC[C@@H]1Oc1cccc(NC(=O)C2=CC=C(F)CC2Cl)n1` (single isomer, unassigned) (as salt: salt), the melting point worked out at 238 °C.
On the same count and under the same terms, next, `CN1CCC(Oc2cccc(NC(=O)c3c(F)cccc3Cl)n2)CC1.Cl`: 139.6 °C; `CN1CCC(Oc2cc(NC(=O)c3ccccc3OC(F)(F)F)ccc2Cl)CC1.Cl`: 95 to 97 °C.
On the same count and under the same terms, in the case of `CN1CCC(Oc2cc(NC(=O)c3c(F)cccc3Cl)ccc2Cl)CC1.Cl` it was 259 to 260 °C; in that of `CN1CCC(Oc2cccc(NC(=O)c3ccc(F)cc3)n2)CC1(C)C` (stereo not drawn) (as salt: salt), 145 °C; in that of `CN1CCC(Oc2cccc(NC(=O)c3c(F)cccc3F)c2)CC1.Cl`, 136 to 138 °C.
On the same count and under the same terms, next, `CN1CCC(Oc2cccc(NC(=O)c3ccc(Cl)cc3Cl)c2)CC1.Cl`: 131 to 133 °C; `Cl.O=C(Nc1cccc(OC2CCNCC2)n1)c1ccc(F)cc1` (hydrate or solvate): 251 to 253 °C.
Turning to `CN1CCC(Oc2cc(NC(=O)c3c(F)cccc3F)ccc2Cl)CC1.Cl`, the melting point was 261 °C (dec.).
The same measure, in the same setting: in the case of `CN1CCC(Oc2cccc(NC(=O)c3c(F)cc(F)cc3F)c2)CC1.Cl` it was 136 °C (dec.); in that of `CN1CCC(Oc2cccc(NC(=O)c3ccc(F)c(F)c3F)n2)CC1.Cl`, 182.4 °C (dec.).
Compound `CN1CCC(Oc2cccc(NC(=O)C3CCCCC3)c2)CC1.Cl` showed a melting point of 141 to 142 °C.
Compound `CN1CCC(Oc2cccc(NC(=O)c3ccc(F)cc3Cl)n2)CC1.Cl` (hydrate or solvate) had a melting point of 135 to 137 °C.
In turn, `CN1CCC(Oc2cccc(NC(=O)c3c(Cl)cccc3Cl)c2)CC1.Cl` yielded a melting point of 170 to 171 °C.
For the compound `CN1CCC(Oc2cccc(NC(=O)c3c(F)cc(F)cc3F)n2)CC1.Cl`, the melting point lay within 264 to 266 °C.
The same measure, in the same setting: in the case of `CN1CCC(Oc2cc(NC(=O)c3ccccc3Cl)ccc2Cl)CC1.Cl` it was 259 °C (dec.); in that of `CN1CCC(Oc2cccc(NC(=O)c3c(F)cccc3F)n2)CC1.Cl`, 261.4 °C.
Consider `CN1CCC(Oc2cccc(NC(=O)c3ccccc3OC(F)(F)F)c2)CC1.Cl`, for which the melting point lay within 119 to 121 °C.
Still for that read-out and setting: next, `CN1CCC(Oc2cccc(NC(=O)c3ccccc3Br)c2)CC1.Cl`: 269 °C (dec.); `CC1CN(C)CCC1Oc1cccc(NC(=O)c2ccc(F)cc2Cl)n1.Cl` (stereo not drawn): 155 to 160 °C; `CN1CCC(Oc2cccc(NC(=O)c3ccccc3OC(F)(F)F)n2)CC1.Cl`: 88.7 °C.
On the same count and under the same terms, in the case of `CC(C)C(=O)Nc1cccc(OC2CCN(C)CC2)c1.Cl` it was 104 to 105 °C.
The same measure, in the same setting: in the case of `CN1CCC(Oc2cc(F)cc(NC(=O)c3ccc(F)cc3)c2)CC1.Cl` it was 150 °C; in that of `CN1CCC(Oc2cccc(NC(=O)c3ccc(F)cc3)n2)CC1.Cl` (hydrate or solvate), 203 to 205 °C.
In turn, `CN1CCC(Oc2cccc(NC(=O)c3ccc(F)cc3F)n2)CC1.Cl` (hydrate or solvate) yielded a melting point of 269 to 271 °C.
`CN1CCC(Oc2cccc(NC(=O)c3cccnc3)c2)CC1.Cl` registered a melting point of 73 to 74 °C.
Take `C[C@H]1C[C@H](Oc2cccc(NC(=O)c3ccc(F)cc3Cl)c2)CCN1C.Cl` (single isomer, unassigned): the melting point turned out to be 145 °C.
The same measure, in the same setting: in the case of `CCN1CCC(Oc2cccc(NC(=O)c3c(F)cccc3Cl)c2)CC1.Cl` it was 262 °C (dec.).
The same measure, in the same setting: next, `C[C@H]1C[C@@H](Oc2cccc(NC(=O)c3ccc(F)cc3Cl)c2)CCN1C.Cl` (single isomer, unassigned): 152 °C; `CCN1CCC(Oc2cccc(NC(=O)c3ccc(F)cc3Cl)c2)CC1.Cl`: 91 °C.
Consider `CN1CCC(Oc2cccc(NC(=O)c3c(F)cccc3Cl)c2)CC1.Cl`, for which the melting point was in the range of 153 to 154 °C.
The same measure, in the same setting: in the case of `C[C@H]1CN(C)CC[C@H]1Oc1cccc(NC(=O)C2=CC=C(F)CC2Cl)n1` (single isomer, unassigned) (as salt: salt) it was 238 °C; in that of `CN1CCC(Oc2cccc(NC(=O)c3ccc(F)cc3Cl)c2)CC1.Cl`, 213 °C.
Consider `CNS(=O)(=O)Cc1ccc2[nH]cc(CCN(C)C)c2c1` [sumatriptan], for which, in the series with rabbit saphenous vein, the “corrected vasoconstriction EC50 (EC50 divided by %max KCl)” value was determined as 10.3 nM. In the series with rabbit saphenous vein (Oryctolagus cuniculus), this compound showed a pEC50 of 6.18.

The values are drawn from patent US7608629B2, “(Piperidinyloxy)phenyl, (piperidinyloxy)pyridinyl, (piperidinylsulfanyl)phenyl and (piperidinylsulfanyl)pyridinyl compounds as 5-HT1F agonists” (Eli Lilly and Company, priority 2003, dated 2009).
